Assay results reported in US20210038607A1, “OXADIAZOLYLTHIOPHENE DERIVATIVES USEFUL AS HISTONE DEACETYLASE INHIBITORS” (Karus Therapeutics Limited, priority 2018, published 2021).

Key:
Human HDAC9 = target: T1, Human HDAC9 (Homo sapiens, UniProt Q9UKV0); experiment: HDAC9 biochemical assay, class IIa-specific substrate; conditions: read-out: HDAC Isoform IC50 (nM) 9
T1 construct: amino acids 604-1066 with C-terminal His tag; His (C); host or cells: baculovirus expression system
Procedure, shortened: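 HDAC9 residues 604-1066 (C-terminal His tag, baculovirus-expressed) at 0.06 ng/ul with 50 μM class IIa substrate Boc-Lys(trifluoroacetyl)-AMC in Tris-HCl pH 8.0 buffer with BSA and 1% DMSO. 30 min at room temperature, then developer added; fluorescence read at 360/460 nm Ex/Em.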

Human HDAC7 = target: T2, Human HDAC7 (Homo sapiens, UniProt Q8WUI4); experiment: HDAC7 biochemical assay, class IIa-specific substrate; conditions: read-out: HDAC Isoform IC50 (nM) 7
T2 construct: (a.a. 518-end) with N-terminal GST tag; GST (N); host or cells: baculovirus expression system
T2 sequence (Q8WUI4 518-952 limits assumed): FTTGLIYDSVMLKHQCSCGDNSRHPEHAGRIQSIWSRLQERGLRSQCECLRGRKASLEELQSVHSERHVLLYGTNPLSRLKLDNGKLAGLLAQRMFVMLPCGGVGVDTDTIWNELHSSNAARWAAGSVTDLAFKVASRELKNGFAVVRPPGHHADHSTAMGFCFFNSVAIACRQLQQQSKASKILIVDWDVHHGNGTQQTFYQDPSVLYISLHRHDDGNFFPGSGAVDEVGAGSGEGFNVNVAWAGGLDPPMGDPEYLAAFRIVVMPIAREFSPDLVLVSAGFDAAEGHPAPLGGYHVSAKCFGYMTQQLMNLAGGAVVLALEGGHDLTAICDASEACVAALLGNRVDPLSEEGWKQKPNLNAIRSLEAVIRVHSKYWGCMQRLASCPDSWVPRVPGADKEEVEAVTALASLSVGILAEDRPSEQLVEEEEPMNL
Procedure, shortened: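 Two-step fluorogenic readout: class IIa-selective trifluoroacetyl-lysine AMC substrate (50 μM) deacetylated by N-terminal GST-HDAC7 fragment (0.001 ng/ul), then digested by developer, Ex/Em 360/460. Reaction: 30 min, room temperature, Tris-HCl pH 8.0, NaCl/KCl/MgCl2, 1 mg/mL BSA, 1% DMSO.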

[1] = system: acetylated α-tubulin in A549 lung adenocarcinoma cells; experiment: Acetylated α-tubulin in-cell western (ICW) assay; format: cell-based; conditions: Homo sapiens, 16 h exposure, relative to 40 μM scriptaid positive control, read-out: EC50 Ac-α-tubulin, A549 cells
Procedure, shortened: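 A549 cells exposed to compound for 16 h at 37 °C (0.4% DMSO final), then fixed and immunostained for acetylated α-tubulin or histone H3 with near-infrared detection, signal normalised to cell stain. Response expressed relative to DMSO controls and to 40 μM scriptaid (tubulin) or 40 μM TSA (H3); EC50 by constrained nonlinear regression.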

Human HDAC4 = target: T3, Human HDAC4 (Homo sapiens, UniProt P56524); experiment: HDAC4 biochemical assay, class IIa-specific substrate; conditions: read-out: HDAC Isoform IC50 (nM) 4
T3 construct: amino acids 627-1085 with N-terminal GST tag; GST (N); host or cells: baculovirus expression system
T3 sequence (P56524 627-1084 limits assumed): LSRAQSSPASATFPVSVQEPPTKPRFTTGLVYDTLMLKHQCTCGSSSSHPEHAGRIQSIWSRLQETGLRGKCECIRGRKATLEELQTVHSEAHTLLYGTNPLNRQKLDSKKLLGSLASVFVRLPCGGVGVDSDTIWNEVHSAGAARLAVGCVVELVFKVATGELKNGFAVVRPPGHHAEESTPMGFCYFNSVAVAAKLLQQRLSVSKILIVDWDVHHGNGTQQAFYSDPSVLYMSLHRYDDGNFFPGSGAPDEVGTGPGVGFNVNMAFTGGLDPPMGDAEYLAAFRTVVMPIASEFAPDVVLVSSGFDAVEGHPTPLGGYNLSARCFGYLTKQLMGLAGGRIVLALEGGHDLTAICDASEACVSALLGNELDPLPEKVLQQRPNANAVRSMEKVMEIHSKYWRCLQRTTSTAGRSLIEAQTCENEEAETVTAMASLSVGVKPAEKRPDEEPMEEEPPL
Procedure, shortened: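 Two-step fluorogenic read-out: deacetylated BOC-Lys(trifluoroacetyl)-AMC (50 μM) was digested by developer and measured at Ex/Em 360/460. Deacetylation by 0.004 ng/ul HDAC4 (aa 627-1085, N-terminal GST) ran 30 min at room temperature, pH 8.0 Tris buffer, 1 mg/mL BSA, 1% DMSO.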

T1 sequence (Q9UKV0 604-1066 isoform Q9UKV0-5): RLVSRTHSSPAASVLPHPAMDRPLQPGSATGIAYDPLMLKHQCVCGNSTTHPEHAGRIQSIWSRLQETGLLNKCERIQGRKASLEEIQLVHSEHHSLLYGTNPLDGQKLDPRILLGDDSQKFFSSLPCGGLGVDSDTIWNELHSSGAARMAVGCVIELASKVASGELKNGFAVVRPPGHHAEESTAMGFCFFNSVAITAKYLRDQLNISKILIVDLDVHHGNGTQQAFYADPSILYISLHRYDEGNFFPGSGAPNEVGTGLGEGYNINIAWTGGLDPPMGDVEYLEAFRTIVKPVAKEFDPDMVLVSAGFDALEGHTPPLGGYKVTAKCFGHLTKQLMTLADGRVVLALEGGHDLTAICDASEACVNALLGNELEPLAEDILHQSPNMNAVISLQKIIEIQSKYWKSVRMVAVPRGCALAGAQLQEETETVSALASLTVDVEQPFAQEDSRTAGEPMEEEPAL

`CS(=O)(=O)c1nccc(N(Cc2ccc(-c3noc(C(F)(F)F)n3)s2)c2cnccn2)n1` [Example CE, 2-Methanesulfonyl-N-(pyrazin-2-yl)-N-({5-[5-(trifluoromethyl)-1,2,4-oxadiazol-3-yl]thiophen-2-yl}methyl)pyrimidin-4-amine] was tested, and the IC50 (Human HDAC9) was at most 10000 nM, the IC50 (Human HDAC7) was at most 1000 nM and the EC50 [1] was at least 10000 nM. The IC50 (Human HDAC4) was at most 10000 nM.
`FC(F)(F)c1nc(-c2ccc(CN(c3ccccn3)c3cnccn3)s2)no1` [Example V, N-(Pyridin-2-yl)-N-({5-[5-(trifluoromethyl)-1,2,4-oxadiazol-3-yl]thiophen-2-yl}methyl)pyrazin-2-amine] gave an IC50 (Human HDAC9) of at most 10000 nM, an IC50 (Human HDAC7) of at most 10000 nM and an IC50 (Human HDAC4) of at most 10000 nM.
For `FC(F)(F)c1nc(-c2ccc(CN(c3ccncn3)c3cnccn3)s2)no1` [Example BZ, N-(Pyrazin-2-yl)-N-({5-[5-(trifluoromethyl)-1,2,4-oxadiazol-3-yl]thiophen-2-yl}methyl)pyrimidin-4-amine], the IC50 (Human HDAC9) was at most 500 nM, the IC50 (Human HDAC7) was at most 500 nM and the IC50 (Human HDAC4) was at most 500 nM.
For `FC(F)(F)c1ccc(N(Cc2ccc(-c3noc(C(F)(F)F)n3)s2)c2cnccn2)nn1` [Example DH, N-(Pyrazin-2-yl)-6-(trifluoromethyl)-N-({5-[5-(trifluoromethyl)-1,2,4-oxadiazol-3-yl]thiophen-2-yl}methyl)pyridazin-3-amine], the IC50 (Human HDAC9) was at most 10000 nM, the IC50 (Human HDAC7) was at most 10000 nM and the EC50 [1] was at least 10000 nM. The IC50 (Human HDAC4) was at most 1000 nM.
Work on `FC(F)(F)c1nc(-c2ccc(CN(c3cncnc3)c3cnccn3)s2)no1` [Example CR, N-(Pyrazin-2-yl)-N-({5-[5-(trifluoromethyl)-1,2,4-oxadiazol-3-yl]thiophen-2-yl}methyl)pyrimidin-5-amine] yielded an IC50 (Human HDAC9) of at most 500 nM, an IC50 (Human HDAC7) of at most 500 nM and an IC50 (Human HDAC4) of at most 500 nM.
`FC(F)(F)c1nc(-c2ccc(CN(c3cnccn3)c3ccc(N4CCCC4)nn3)s2)no1` [Example DI, N-(Pyrazin-2-yl)-6-(pyrrolidin-1-yl)-N-({5-[5-(trifluoromethyl)-1,2,4-oxadiazol-3-yl]thiophen-2-yl}methyl)pyridazin-3-amine] was tested, and the IC50 (Human HDAC9) was at most 10000 nM, the IC50 (Human HDAC7) was at most 1000 nM and the EC50 [1] was 1000 to 10000 nM. It also gave an IC50 (Human HDAC4) of at most 1000 nM.
`CS(=O)(=O)c1ccc(N(Cc2ccc(-c3noc(C(F)(F)F)n3)s2)c2cnccn2)nn1` [Example DL, 6-Methanesulfonyl-N-(pyrazin-2-yl)-N-({5-[5-(trifluoromethyl)-1,2,4-oxadiazol-3-yl]thiophen-2-yl}methyl)pyridazin-3-amine] showed an IC50 (Human HDAC9) of at most 10000 nM, an IC50 (Human HDAC7) of at most 1000 nM and an EC50 [1] of 1000 to 10000 nM. The IC50 (Human HDAC4) was at most 500 nM.
